Laboratory results as given in the supplement of paper PMC10307832.

Legend:
Experiment in all cases: relative viability (nuclei count vs DMSO), 5 days (fraction); higher = more cells survive
[1] = compound: COc1cc2nccc(Oc3ccc(NC(=O)C4(C(=O)Nc5ccc(F)cc5)CC4)cc3)c2cc1OC [Cabozantinib] + CS(=O)(=O)N1CCN(Cc2cc3nc(-c4cccc5[nH]ncc45)nc(N4CCOCC4)c3s2)CC1 [Pictilisib] (partner 1 µM)
Outline: (§1)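 Cells from lung cancer lines were seeded into 1536-well plates and, one day later, dosed by pin tool. Treatments were either a single drug or a fixed dose of an anchor drug with five library-drug doses (not always all listed) in √10 steps. After 5 days, nuclei were stained in a one-step fixation (final 0.05% Triton X-100, 1% formaldehyde, 1 ug/ml Hoechst) and counted on 4× images, and relative viability is the treated-to-vehicle nuclei ratio, as the median of duplicate plates.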

[2] = compound: C1=CC(=CC=C1NC(=S)NNC2=C(C=C(C=C2[N+](=O)[O-])C(F)(F)F)[N+](=O)[O-])F [Kobe2602] + Nc1nc2[nH]cc(CCc3ccc(C(=O)N[C@@H](CCC(=O)O)C(=O)O)cc3)c2c(=O)[nH]1 [Pemetrexed] (partner 0.2 µM)
Outline: as §1

[3] = compound: O[C@@H](COc1cccc2ncccc12)CN1CCN([C@@H]2c3ccccc3[C@@H]3[C@H](c4ccccc42)C3(F)F)CC1 [Zosuquidar] + Cc1nc(NC(=O)N2CCC[C@H]2C(N)=O)sc1-c1ccnc(C(C)(C)C(F)(F)F)c1 [Alpelisib] (partner 2 µM)
Outline: as §1

[4] = compound: COc1cc2nccc(Oc3ccc(NC(=O)C4(C(=O)Nc5ccc(F)cc5)CC4)cc3)c2cc1OC [Cabozantinib] + COc1cc2c(Oc3ccc(NC(=O)C4(C(=O)Nc5ccc(F)cc5)CC4)cc3F)ccnc2cc1OCCCN1CCOCC1 [Foretinib] (partner 0.25 µM)
Outline: as §1

Cell Line | relative viability ([1]; first compound 0.02 µM) | relative viability ([1]; first compound 0.06325 µM) | relative viability ([1]; first compound 0.2 µM) | relative viability ([1]; first compound 0.6325 µM) | relative viability ([1]; first compound 2 µM) | relative viability ([2]; first compound 0.2 µM) | relative viability ([2]; first compound 0.6325 µM) | relative viability ([2]; first compound 2 µM) | relative viability ([2]; first compound 6.325 µM) | relative viability ([2]; first compound 20 µM) | relative viability ([3]; first compound 0.01 µM) | relative viability ([3]; first compound 0.03162 µM) | relative viability ([3]; first compound 0.1 µM) | relative viability ([3]; first compound 0.3162 µM) | relative viability ([3]; first compound 1 µM) | relative viability ([4]; first compound 0.02 µM) | relative viability ([4]; first compound 0.06325 µM) | relative viability ([4]; first compound 0.2 µM) | relative viability ([4]; first compound 0.6325 µM) | relative viability ([4]; first compound 2 µM)
NCI-H2228 | 0.539 | 0.544 | 0.551 | 0.455 | 0.331 | 0.369 | 0.356 | 0.339 | 0.344 | 0.35 | 0.562 | 0.716 | 0.881 | 0.679 | 0.859 | 1.08 | 1.26 | 0.932 | 0.794 | 0.672
NCI-H2347 | 0.893 | 0.726 | 0.897 | 0.497 | 0.592 | 0.432 | 0.467 | 0.427 | 0.443 | 0.431 | 1.1 | 0.991 | 0.833 | 1.16 | 0.984 | 0.842 | 0.916 | 1.28 | 1.11 | 1.05
NCI-H2405 |  | 0.496 | 0.602 | 0.422 | 0.439 | 1.07 | 1.21 | 0.888 | 1.1 | 1.08 | 0.968 | 0.745 | 0.605 | 0.972 | 0.837 | 1.01 | 1.04 | 1.05 | 1.05 | 1.01
NCI-H3122 | 0.512 | 0.622 | 0.579 | 0.77 | 0.769 | 0.189 | 0.191 | 0.198 | 0.187 | 0.208 | 0.714 | 0.769 | 0.679 | 0.764 | 0.763 | 0.947 | 0.973 | 0.949 | 0.892 | 0.946
PC-3 [JPC-3] | 0.723 | 0.926 |  | 0.806 | 0.774 | 1.26 | 1.33 | 1.11 | 1.11 | 1.06 | 0.986 | 1 | 0.91 | 1.03 | 0.994 | 1.19 | 1.2 |  | 1.09 | 1.04
PC-14 | 0.722 | 0.761 |  | 0.76 | 0.689 | 0.15 | 0.137 | 0.134 | 0.15 | 0.14 | 0.916 | 1.05 | 0.864 | 0.944 | 0.923 | 0.99 | 1 |  | 1.05 | 0.976
RERF-LC-KJ | 0.501 | 0.646 | 0.578 | 0.567 | 0.485 | 0.468 | 0.469 | 0.498 | 0.496 | 0.449 | 0.809 | 0.913 | 0.745 | 0.887 | 0.874 | 0.921 | 0.852 | 0.863 | 0.899 | 0.943
SK-LU-1 |  | 0.857 | 0.519 | 0.481 | 0.529 | 0.969 | 0.978 | 1.02 | 0.963 | 0.953 | 0.954 | 1.04 | 1.17 | 1.26 | 0.895 | 0.868 | 1.01 | 0.904 | 0.845 | 0.699
SK-MES-1 | 0.357 | 0.391 | 0.335 | 0.386 | 0.322 | 0.917 | 0.946 | 0.934 | 0.868 | 0.534 | 0.876 | 0.95 | 0.692 | 1.07 | 0.987 | 0.936 | 1.1 | 0.948 | 1.09 | 0.802
SW 1573 | 0.483 | 0.573 | 0.543 | 0.411 | 0.449 | 0.786 | 0.96 | 0.82 | 0.84 | 0.598 | 0.721 | 0.739 | 0.651 | 0.89 | 0.8 | 0.966 | 0.828 | 0.984 | 1.09 | 0.964
